Measured values: paper PMC3961306, “Comparison of the Cancer Gene Targeting and Biochemical Selectivities of All Targeted Kinase Inhibitors Approved for Clinical Use” (PLoS ONE, 2014)

Columns and labels:
Experiment in all cases: Kinase profiling in a biochemical assay panel (mobility shift assays and ELISA), %-inhibition at 1 μM; selectivity entropy
[1] = target: panel of more than 300 wild-type and mutant kinases (313 kinase panel) (Homo sapiens, UniProt Q16512)
[2] = target: T1, panel of more than 300 wild-type and mutant kinases (313 kinase panel) (Homo sapiens, UniProt Q9BZL6)
T1 sequence (Q9BZL6 1-878): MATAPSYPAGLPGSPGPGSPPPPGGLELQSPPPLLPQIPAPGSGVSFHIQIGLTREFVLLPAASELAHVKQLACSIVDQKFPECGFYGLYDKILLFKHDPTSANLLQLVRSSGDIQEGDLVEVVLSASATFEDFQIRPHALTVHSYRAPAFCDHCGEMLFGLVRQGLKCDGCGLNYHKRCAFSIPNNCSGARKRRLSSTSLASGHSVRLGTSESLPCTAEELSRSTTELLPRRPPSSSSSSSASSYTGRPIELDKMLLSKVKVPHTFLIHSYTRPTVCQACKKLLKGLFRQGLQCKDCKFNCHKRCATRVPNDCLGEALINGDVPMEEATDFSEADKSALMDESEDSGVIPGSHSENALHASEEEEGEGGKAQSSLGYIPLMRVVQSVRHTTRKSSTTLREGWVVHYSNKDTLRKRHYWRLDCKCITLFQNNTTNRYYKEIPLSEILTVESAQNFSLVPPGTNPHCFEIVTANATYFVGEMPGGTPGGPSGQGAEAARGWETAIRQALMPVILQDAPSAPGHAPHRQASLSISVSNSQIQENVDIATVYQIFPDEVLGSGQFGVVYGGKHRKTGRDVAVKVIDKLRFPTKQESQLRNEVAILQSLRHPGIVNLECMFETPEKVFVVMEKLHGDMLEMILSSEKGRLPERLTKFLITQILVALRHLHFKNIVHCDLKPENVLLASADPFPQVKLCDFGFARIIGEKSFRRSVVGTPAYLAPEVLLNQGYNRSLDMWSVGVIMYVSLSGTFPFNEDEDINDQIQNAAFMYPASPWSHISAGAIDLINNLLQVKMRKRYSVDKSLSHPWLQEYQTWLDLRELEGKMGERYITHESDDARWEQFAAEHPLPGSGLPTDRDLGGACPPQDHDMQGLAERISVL

[3] = target: panel of more than 300 wild-type and mutant kinases (313 kinase panel) (Homo sapiens, UniProt P24723)
[4] = target: panel of more than 300 wild-type and mutant kinases (313 kinase panel) (Homo sapiens, UniProt P41279)
[5] = target: panel of more than 300 wild-type and mutant kinases (313 kinase panel) (Homo sapiens, UniProt Q14289)
[6] = target: panel of more than 300 wild-type and mutant kinases (313 kinase panel) (Homo sapiens, UniProt Q00534)
[7] = target: panel of more than 300 wild-type and mutant kinases (313 kinase panel) (Homo sapiens, UniProt Q9P1W9)
[8] = target: panel of more than 300 wild-type and mutant kinases (313 kinase panel) (Homo sapiens, UniProt Q7KZI7)
[9] = target: T2, panel of more than 300 wild-type and mutant kinases (313 kinase panel) (Homo sapiens, UniProt P52564)
T2 sequence (P52564 1-334): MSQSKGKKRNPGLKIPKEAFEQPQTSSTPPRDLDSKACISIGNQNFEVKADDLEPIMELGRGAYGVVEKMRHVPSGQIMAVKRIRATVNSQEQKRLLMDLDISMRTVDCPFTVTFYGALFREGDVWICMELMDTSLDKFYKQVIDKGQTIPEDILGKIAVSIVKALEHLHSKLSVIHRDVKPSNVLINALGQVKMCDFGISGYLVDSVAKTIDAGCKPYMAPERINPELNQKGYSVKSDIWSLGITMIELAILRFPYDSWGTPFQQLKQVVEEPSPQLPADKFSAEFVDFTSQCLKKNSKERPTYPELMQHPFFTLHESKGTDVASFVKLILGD

[10] = target: T3, panel of more than 300 wild-type and mutant kinases (313 kinase panel) (Homo sapiens, UniProt Q96PF2)
T3 sequence (Q96PF2 1-358): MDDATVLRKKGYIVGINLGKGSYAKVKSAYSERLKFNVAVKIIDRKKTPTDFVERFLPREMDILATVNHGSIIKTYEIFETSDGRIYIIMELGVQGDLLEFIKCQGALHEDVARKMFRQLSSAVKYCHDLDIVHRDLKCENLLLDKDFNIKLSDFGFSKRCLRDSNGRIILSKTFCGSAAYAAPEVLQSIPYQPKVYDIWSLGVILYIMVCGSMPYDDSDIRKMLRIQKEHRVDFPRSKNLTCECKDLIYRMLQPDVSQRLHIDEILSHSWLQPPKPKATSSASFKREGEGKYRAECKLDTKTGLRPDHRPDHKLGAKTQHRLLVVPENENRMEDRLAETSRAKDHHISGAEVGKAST

[11] = target: panel of more than 300 wild-type and mutant kinases (313 kinase panel) (Homo sapiens, UniProt P54646)
[12] = kinase CDK6/CycD3, 1 μM compound
[13] = kinase MAP2K6, compound at 1 μM
[14] = kinase AMPKα2/β1/γ1, 1 μM compound

panel of more than 300 wild-type and mutant kinases (313 kinase panel) (Homo sapiens, UniProt P41279), sequence (P41279 whole entry, change not shown): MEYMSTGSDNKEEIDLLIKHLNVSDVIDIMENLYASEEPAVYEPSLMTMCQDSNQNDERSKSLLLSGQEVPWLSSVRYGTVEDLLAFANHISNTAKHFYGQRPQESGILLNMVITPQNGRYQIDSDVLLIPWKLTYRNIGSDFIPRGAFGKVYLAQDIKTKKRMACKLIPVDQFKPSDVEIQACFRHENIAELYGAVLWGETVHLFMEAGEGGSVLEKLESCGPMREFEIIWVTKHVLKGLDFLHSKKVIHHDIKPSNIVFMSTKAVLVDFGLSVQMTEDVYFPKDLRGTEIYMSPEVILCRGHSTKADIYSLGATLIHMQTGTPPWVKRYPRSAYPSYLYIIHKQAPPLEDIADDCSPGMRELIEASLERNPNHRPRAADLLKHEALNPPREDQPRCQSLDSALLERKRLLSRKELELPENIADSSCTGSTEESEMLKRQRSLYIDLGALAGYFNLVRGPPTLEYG
panel of more than 300 wild-type and mutant kinases (313 kinase panel) (Homo sapiens, UniProt Q14289), sequence (Q14289 whole entry, change not shown): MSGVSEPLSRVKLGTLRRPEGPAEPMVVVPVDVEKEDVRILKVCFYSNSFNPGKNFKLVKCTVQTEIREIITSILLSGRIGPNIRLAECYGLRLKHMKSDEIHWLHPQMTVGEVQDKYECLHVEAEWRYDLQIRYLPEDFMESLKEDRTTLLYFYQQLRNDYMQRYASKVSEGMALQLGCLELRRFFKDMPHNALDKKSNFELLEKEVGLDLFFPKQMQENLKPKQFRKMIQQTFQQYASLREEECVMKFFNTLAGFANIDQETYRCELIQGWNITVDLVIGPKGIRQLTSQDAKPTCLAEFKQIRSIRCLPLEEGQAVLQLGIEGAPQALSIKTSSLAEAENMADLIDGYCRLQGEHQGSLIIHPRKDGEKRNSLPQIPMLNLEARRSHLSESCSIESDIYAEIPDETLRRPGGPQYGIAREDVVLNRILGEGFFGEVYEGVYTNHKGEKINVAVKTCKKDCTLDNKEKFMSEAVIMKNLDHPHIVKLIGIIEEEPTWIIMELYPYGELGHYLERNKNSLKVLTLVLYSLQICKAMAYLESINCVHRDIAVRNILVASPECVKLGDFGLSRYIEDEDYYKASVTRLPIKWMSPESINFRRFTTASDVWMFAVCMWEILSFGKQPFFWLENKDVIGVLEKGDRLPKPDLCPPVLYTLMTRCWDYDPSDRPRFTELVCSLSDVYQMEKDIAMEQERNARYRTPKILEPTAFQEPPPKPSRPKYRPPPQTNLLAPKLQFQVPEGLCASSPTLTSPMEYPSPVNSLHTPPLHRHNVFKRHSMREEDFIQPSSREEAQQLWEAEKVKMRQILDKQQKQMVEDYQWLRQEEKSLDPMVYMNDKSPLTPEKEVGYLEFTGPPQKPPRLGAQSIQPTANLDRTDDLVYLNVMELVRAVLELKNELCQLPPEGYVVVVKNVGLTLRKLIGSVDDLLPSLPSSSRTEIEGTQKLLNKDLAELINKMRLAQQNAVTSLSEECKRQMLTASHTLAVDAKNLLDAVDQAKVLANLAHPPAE
panel of more than 300 wild-type and mutant kinases (313 kinase panel) (Homo sapiens, UniProt P24723), sequence (P24723 whole entry, change not shown): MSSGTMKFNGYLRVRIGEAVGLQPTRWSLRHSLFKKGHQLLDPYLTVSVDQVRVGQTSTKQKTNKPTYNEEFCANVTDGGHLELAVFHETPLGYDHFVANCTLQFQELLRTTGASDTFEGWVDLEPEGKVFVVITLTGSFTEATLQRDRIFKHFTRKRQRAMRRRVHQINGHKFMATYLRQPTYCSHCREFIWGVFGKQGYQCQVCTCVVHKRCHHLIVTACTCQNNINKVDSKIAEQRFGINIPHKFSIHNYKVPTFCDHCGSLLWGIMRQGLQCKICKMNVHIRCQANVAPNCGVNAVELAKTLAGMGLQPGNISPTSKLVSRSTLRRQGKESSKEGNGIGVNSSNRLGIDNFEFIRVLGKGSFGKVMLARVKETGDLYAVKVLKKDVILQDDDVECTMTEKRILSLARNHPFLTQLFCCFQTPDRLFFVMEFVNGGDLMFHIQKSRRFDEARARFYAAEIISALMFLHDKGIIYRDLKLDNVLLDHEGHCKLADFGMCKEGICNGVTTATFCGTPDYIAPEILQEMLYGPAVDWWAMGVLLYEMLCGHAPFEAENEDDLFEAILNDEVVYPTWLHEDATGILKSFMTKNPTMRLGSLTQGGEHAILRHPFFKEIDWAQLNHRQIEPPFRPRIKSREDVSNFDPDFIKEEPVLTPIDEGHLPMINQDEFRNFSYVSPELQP

Row | Compound | %-inhibition of PKN1 ([1]; kinase PKN1, 1 μM) [%] | %-inhibition of PKD2 ([2]; kinase PKD2, 1 μM) [%] | %-inhibition of PKCη ([3]; kinase PKCη, 1 μM) [%] | %-inhibition of COT ([4]; kinase COT, compound at 1 μM) [%] | %-inhibition of PYK2 ([5]; kinase PYK2, 1 μM) [%] | %-inhibition, CDK6/CycD3 [6, 12] [%] | %-inhibition of PIM2 ([7]; kinase PIM2, 1 μM) [%] | %-inhibition of MARK2 ([8]; kinase MARK2, compound at 1 μM) [%] | %-inhibition of MAP2K6 [9, 13] [%] | %-inhibition of TSSK2 ([10]; kinase TSSK2, 1 μM) [%] | %-inhibition, AMPKα2/β1/γ1 [11, 14] [%] | other results
1 | CO[C@H]1C[C@@H]2CC[C@@H](C)[C@@](O)(O2)C(=O)C(=O)N2CCCC[C@H]2C(=O)O[C@H]([C@H](C)C[C@@H]2CC[C@@H](OCCO)[C@H](OC)C2)CC(=O)[C@H](C)/C=C(\C)[C@@H](O)[C@@H](OC)C(=O)[C@H](C)C[C@H](C)/C=C/C=C/C=C/1C [everolimus] | 2.6 | -17 | 9 | -3 | 1.49 | -3 | -7 | -6 | 13 | -11 | -6 | 
2 | CNC(=O)c1cc(Oc2ccc(NC(=O)Nc3ccc(Cl)c(C(F)(F)F)c3)c(F)c2)ccn1 [regorafenib] | 0.804 | -18 | -9 | -4 | -0.496 | -1.31 | -9 | 2.17 | 93 | -11 | 16 | 
3 | CC(=O)Nc1cccc(-n2c(=O)n(C3CC3)c(=O)c3c(Nc4ccc(I)cc4F)n(C)c(=O)c(C)c32)c1 [trametinib] | 3.71 | -3.28 | -8 | 13 | 2.72 | -4.23 | -4 | -6 | -21 | -1.73 | 1.21 | 
4 | CO[C@H]1C[C@@H]2CC[C@@H](C)[C@@](O)(O2)C(=O)C(=O)N2CCCC[C@H]2C(=O)O[C@H]([C@H](C)C[C@@H]2CC[C@@H](OC(=O)C(C)(CO)CO)[C@H](OC)C2)CC(=O)[C@H](C)/C=C(\C)[C@@H](O)[C@@H](OC)C(=O)[C@H](C)C[C@H](C)/C=C/C=C/C=C/1C [temsirolimus] | 0.71 | -16 | 8 | 8 | -3 | -3.18 | -6 | -6 | 15 | -0.179 | -4 | 
5 | COc1cc2nccc(Oc3ccc(NC(=O)C4(C(=O)Nc5ccc(F)cc5)CC4)cc3)c2cc1OC [cabozantinib] | 2.13 | -11 | 8.55 | 18 | 91 | 0.312 | -12 | -4 | 83 | 0.418 | 1.75 | 
6 | Cc1cn(-c2cc(NC(=O)c3ccc(C)c(Nc4nccc(-c5cccnc5)n4)c3)cc(C(F)(F)F)c2)cn1 [nilotinib] | 13 | -3 | 5.43 | 2.3 |  | -23 | 7 | 0.732 | 84 | 2.58 | -0.54 | %-inhibition of PYK2 ([5]; 1 µM): -63%
7 | C#Cc1cccc(Nc2ncnc3cc(OCCOC)c(OCCOC)cc23)c1 [erlotinib] |  |  |  |  |  |  |  |  |  |  |  | %-inhibition of PKN1 ([1]; 1 µM): 2.76%; %-inhibition of PKD2 ([2]; 1 µM): 17%; %-inhibition of PKCη ([3]; 1 µM): 6.34%; %-inhibition of COT ([4]; 1 µM): -0.486%; %-inhibition of PYK2 ([5]; 1 µM): 8%; %-inhibition, CDK6/CycD3 ([6]; 1 µM): 9%; %-inhibition of PIM2 ([7]; 1 µM): 9%; %-inhibition of MARK2 ([8]; 1 µM): 7%; %-inhibition of MAP2K6 ([9]; 1 µM): 6%; %-inhibition of TSSK2 ([10]; 1 µM): 2%; %-inhibition, AMPKα2/β1/γ1 ([11]; 1 µM): 4.43%
